Measured values reported in patent US20070112032A1, “Prevention and/or reduction of photoreceptor degeneration with retinoids” (priority 2003, published 2007).

Key:
[1] = tested on: photoreceptor layer of rats exposed to blue light; assay: Blue light (480 nm) photoreceptor damage in rats, retinal structure by histology; assay type: in vivo, Sprague-Dawley rats; design: key to Protective Activity: * means a protective effect of the photoreceptor layer to damage from blue light radiation.; **: Greater effectiveness is shown by increasing number of *'s.; ***: Greater effectiveness is shown by increasing number of *'s.; X means no such protective effect; conditions: for thickness of the photoreceptor layer: FIG. 2, oral 5 days before blue light, tazarotene 3 mg/kg/day, Compound A 10 mg/kg/day, compared with vehicle and antagonists; for thickness of the photoreceptor layer / Protective Activity: rats; for Protective Activity: oral dosing 5 days, last dose 2 hours before 8 hours blue light (480 nm, 12000 LUX)
Protocol: (§1) Adult male abino Sprague-Dawley rats (weight 400±30 g) were used for the following examples. After 18 hours of dark adaptation, animals were housed in specially designed acrylic cages and exposed to high intensity (12000 LUX) of blue fluorescent light (480 nm) for 8 hours. The light intensity was measured with a digital light meter. Each animal was housed separately. The room was maintained at 73° F. throughout the experiment. Animals were orally dosed with the appropriate retinoid or positive control, i.e. brimonidine, for 5 days with the last dose administered 2 hours before blue-light exposure. After the light exposure, the animals were kept in the dark room and recovered for an additional 5 days. Retinal function was evaluated with flash ERG analysis. Retinal structure was assessed by histology.
The following retinoids were evaluated for preventing damage to the photoreceptor layer of rats subjected to exposure to blue light.
(The RAR agonist, tazarotene, is an RARβ and […] retinioid. The RXR agonist also has some RAR agonist activity.)
In this Example, the above experiment is repeated with the RAR antagonist, which has antagonist activity at the α, β and […] retinoid receptor subtype dosed in combination with the RAR agonist and the RXR agonist.
The following retinoid compounds were tested in the above method with the results reported as shown.

[2] = tested on: photoreceptor layer of rats exposed to blue light; assay: Blue light (480 nm) photoreceptor damage in rats, retinal function by flash ERG; assay type: in vivo, Sprague-Dawley rats; conditions: FIG. 3, ERG wave versus time, oral 5 days before blue light
Protocol: as §1

[3] = tested on: photoreceptors of rats and mice; conditions: Sparrow PNAS 2003, Sieving PNAS 2001; cited from earlier work

Question: With CC(/C=C/[C@@H]1C[C@]1(C)c1ccc2c(c1)C(C)(C)CCC2(C)C)=C\C(=O)O [Compound A, 3,7-Dimethyl-6(S),7(S)-methano-7-[1,1,4,4-tetramethyl-1,2,3,4-tetrahydronaphth-7-yl]-2E, 4E-heptadienoic acid] as the molecule, how does the “thickness of the photoreceptor layer” value [1] read?
Answer: greater than the photoreceptor layers of the animals dosed with the RAR or RXR antagonists

Question: And the “Protective Activity” value [1]?
Answer: **

Question: And the “protective effect to the photoreceptor layer measured by ERG” value [2]?
Answer: show a protective effect

Question: With CCCOc1c(\C(CC)=C(F)/C=C/C(C)=C/C(=O)O)cc(C(C)C)cc1C(C)C [Compound B, (2E,4E,6E)-7-(3,5-Diisopropyl-2-propoxy-phenyl)-6-fluoro-3-methyl-nona-2,4,6-trienoic acid] as the molecule, how does the “Protective Activity” value [1] read?
Answer: X

Question: For CCc1ccc(C2=CC(C)(C)Sc3ccc(C#Cc4ccc(C(=O)O)cc4)cc32)cc1 [Compound C], which “effect of RAR antagonist on effectiveness of RAR agonist and RXR agonist” value ([1]; FIG. 5, RAR antagonist dosed in combination with the RAR agonist and the RXR agonist) is on record?
Answer: severely diminishes the effectiveness of both the RAR agonist and the RXR agonists

Question: And the “Protective Activity” value [1]?
Answer: X

Question: Which “Protective Activity” value [1] does the source give for Cc1ccc(C2CC(C)(C)Oc3c(Br)cc(NC(=O)c4ccc(C(=O)O)c(F)c4)cc32)cc1 (centres unmarked) [Compound D, 2-Fluoro-4-[6′-(2″,2″-dimethyl-4″-tolylchromanyl)-8'-bromo]carbamoyl benzoic acid] here?
Answer: X

Question: Which “Protective Activity” value [1] does the source give for CC1(C)CCC(C)(C)c2c1cc(C(=O)Nc1cc(F)c(C(=O)O)c(F)c1)c(O)c2Cl [Compound E, 4-[(4-Chloro-3-hydroxy-5,5,8,8-tetramethyl-5,6,7,8-tetrahydro-naphthalene-2-carbonyl)-amino]-2,6-difluoro-benzoic acid] here?
Answer: **

Question: With CCC[C@]1(c2ccc3c(c2)C(C)(C)CCC3(C)C)C[C@H]1/C=C/C(C)=C/C(=O)O [Compound F, 3-Methyl-7-propyl-6(S),7(S)-methano-7[1,1,4,4-tetrametyl-1,2,3,4-tetrahydro-7-yl]-2(E),4(E)-heptadienoic acid] as the molecule, how does the “Protective Activity” value [1] read?
Answer: X

Question: For Brc1c(NC2=NCCN2)ccc2nccnc12 [brimonidine, reference compound], which “thickness of the photoreceptor layer” value [1] is on record?
Answer: much greater than the thickness of the photoreceptor layers of the animals dosed with the vehicle alone

Question: With CC1=C(/C=C/C(C)=C/C=C/C(C)=C\C(=O)O)C(C)(C)CCC1 [isotretinoin, 13-cis retinoic acid] as the molecule, how does the “protection of photoreceptors from light damage” value [3] read?
Answer: can protect photoreceptors of rats and mice from light damage
